Measured values as given in US10851073B2, “Protein tyrosine phosphatase inhibitors and methods of use thereof” (Calico Life Sciences LLC, priority 2019, dated 2020).

What was measured:
[1] = target: T1, His tagged PTPN2 (TC45) protein (Homo sapiens, UniProt P17706); assay: Mobility shift assay used to determine potency of PTPN2 inhibitors; format: biochemical; settings: enzyme 0.5 nM, substrate 2 μM; read-out: PTPN2 MSA IC50
T1 construct: made in house
T1 sequence (P17706 with tags, fused parts or gaps isoform P17706-2): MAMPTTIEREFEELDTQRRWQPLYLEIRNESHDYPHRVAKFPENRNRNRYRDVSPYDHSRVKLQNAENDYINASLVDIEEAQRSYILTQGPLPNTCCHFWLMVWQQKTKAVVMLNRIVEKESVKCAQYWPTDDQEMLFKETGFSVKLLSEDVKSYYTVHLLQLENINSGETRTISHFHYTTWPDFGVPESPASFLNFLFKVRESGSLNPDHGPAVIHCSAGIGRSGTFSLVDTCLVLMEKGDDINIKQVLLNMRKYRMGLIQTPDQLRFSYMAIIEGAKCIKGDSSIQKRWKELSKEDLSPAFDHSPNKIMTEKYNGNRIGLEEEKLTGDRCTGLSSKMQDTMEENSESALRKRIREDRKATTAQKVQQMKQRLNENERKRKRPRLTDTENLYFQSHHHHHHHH
Method in brief: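 Microfluidic mobility-shift read-out (488/530 nm) of dephosphorylation of an OG488-tagged phosphotyrosine insulin receptor peptide, 2 μM, over 10 min at room temperature, after 10 min compound preincubation with 0.5 nM enzyme. Buffer: 50 mM HEPES pH 7.5, EGTA, EDTA, Tween 20, DTT. IC50 derived from % inhibition over 12-point 1:3 series.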

[2] = test system: B16F10 mouse melanoma cells; assay: B16F10 IFNγ-induced cellular growth inhibition assay; format: cell-based; settings: B16-F10, with 0.5 ng/mL IFNγ, read-out: B16F10 GI IC50
Method in brief: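 B16F10 cells grown in DMEM+10% FBS, with or without 0.5 ng/mL final mouse IFNγ, and dosed in triplicate at 100 μM to 0.001 μM final (0.1% DMSO). Confluence imaged every 6 h for 5 days; percent growth inhibition versus DMSO/with-IFNγ control taken once DMSO/no-IFNγ wells exceeded 95% confluence, giving IC50.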

[3] = target: T2, His tagged full-length PTPN1 protein (Homo sapiens, UniProt P18031); assay: Mobility shift assay (MSA) used to determine potency of PTPN1 inhibitors; format: biochemical; settings: enzyme 0.5 nM, substrate 2 μM
T2 construct: made in house
T2 sequence (P18031 with tags, fused parts or gaps): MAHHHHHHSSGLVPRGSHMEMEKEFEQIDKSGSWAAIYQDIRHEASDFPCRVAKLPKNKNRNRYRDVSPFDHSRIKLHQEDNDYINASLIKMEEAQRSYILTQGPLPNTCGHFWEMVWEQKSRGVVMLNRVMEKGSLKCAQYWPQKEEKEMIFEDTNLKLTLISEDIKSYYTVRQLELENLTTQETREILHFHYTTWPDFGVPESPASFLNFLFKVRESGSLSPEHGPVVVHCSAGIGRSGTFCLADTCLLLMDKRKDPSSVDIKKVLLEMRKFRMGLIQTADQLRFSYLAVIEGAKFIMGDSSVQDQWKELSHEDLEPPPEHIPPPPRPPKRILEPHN
Method in brief: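 Full-length His-tagged human PTPN1 (0.5 nM) was preincubated 10 min at room temperature with compound (12-point, 1:3 dilution) in HEPES pH 7.5 buffer with EGTA, EDTA, Tween 20 and DTT. A 2 μM fluorescent phospho-insulin receptor peptide was then added for 10 min before quench. Mobility-shift % conversion gave % inhibition and IC50.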

| Structure (SMILES) | IC50 [2] | IC50 [3] | IC50 [1] |
| --- | --- | --- | --- |
| O=C1CN(c2c(O)cc3c(c2F)CC(N[C@H]2C[C@@H](OC(F)(F)F)C2)CC3)S(=O)(=O)N1 (stereo partly drawn) [Compound 235, 5-(1-fluoro-3-hydroxy-7-{[(1s,3s)-3-(trifluoromethoxy)cyclobutyl]amino}-5,6,7,8-tetrahydronaphthalen-2-yl)-1λ^6,2,5-thiadiazolidine-1,1,3-trione] | 1 to 10 µM | 0.01 to 0.1 µM | 0.01 to 0.1 µM |
| CC(C)(CCNC1CCc2cc(O)c(N3CC(=O)NS3(=O)=O)c(F)c2C1)C(F)(F)F (stereo not drawn) [Compound 123, 5-{1-fluoro-3-hydroxy-7-[(4,4,4-trifluoro-3,3-dimethylbutyl)amino]-5,6,7,8-tetrahydronaphthalen-2-yl}-1λ^6,2,5-thiadiazolidine-1,1,3-trione] | 1 to 10 µM | 0.001 to 0.01 µM | 0.001 to 0.01 µM |
| C[Si](C)(C)CCCNC1CCc2cc(O)c(N3CC(=O)NS3(=O)=O)c(F)c2C1 (stereo not drawn) [Compound 189, 5-(1-fluoro-3-hydroxy-7-{[3-(trimethylsilyl)propyl]amino}-5,6,7,8-tetrahydronaphthalen-2-yl)-1λ^6,2,5-thiadiazolidine-1,1,3-trione] | 1 to 10 µM | > 0.1 µM | 0.001 to 0.01 µM |
| O=C1CN(c2c(O)cc3c(c2F)CN(CCC2CC4CCC2O4)CC3)S(=O)(=O)N1 (stereo not drawn) [Compound 225, 5-{8-fluoro-6-hydroxy-2-[2-(7-oxabicyclo[2.2.1]heptan-2-yl)ethyl]-1,2,3,4-tetrahydroisoquinolin-7-yl}-1λ^6,2,5-thiadiazolidine-1,1,3-trione] | 1 to 10 µM | 0.01 to 0.1 µM | 0.001 to 0.01 µM |
| O=C1CN(c2c(O)cc3c(c2F)CC(NCCOC(F)F)CC3)S(=O)(=O)N1 (stereo not drawn) [Compound 157, 5-(7-{[2-(difluoromethoxy)ethyl]amino}-1-fluoro-3-hydroxy-5,6,7,8-tetrahydronaphthalen-2-yl)-1λ^6,2,5-thiadiazolidine-1,1,3-trione] | 1 to 10 µM | 0.01 to 0.1 µM | 0.001 to 0.01 µM |
| O=C1CN(c2c(O)cc3c(c2F)CC(NCCCC(F)(F)F)CC3)S(=O)(=O)N1 (stereo not drawn) [Compound 120, 5-{1-fluoro-3-hydroxy-7-[(4,4,4-trifluorobutyl)amino]-5,6,7,8-tetrahydronaphthalen-2-yl}-1λ^6,2,5-thiadiazolidine-1,1,3-trione] | < 1 µM | 0.001 to 0.01 µM | 0.001 to 0.01 µM |
| O=C1CN(c2c(O)cc3c(c2F)CC(OCCCC(F)(F)F)CC3)S(=O)(=O)N1 (stereo not drawn) [Compound 142, 5-[1-fluoro-3-hydroxy-7-(4,4,4-trifluorobutoxy)-5,6,7,8-tetrahydronaphthalen-2-yl]-1λ^6,2,5-thiadiazolidine-1,1,3-trione] | 10 to 100 µM | 0.01 to 0.1 µM | 0.001 to 0.01 µM |
| CC1(C)CC1CCCN1CCc2cc(O)c(N3CC(=O)NS3(=O)=O)c(F)c2C1 (stereo not drawn) [Compound 288, 5-{2-[3-(2,2-dimethylcyclopropyl)propyl]-8-fluoro-6-hydroxy-1,2,3,4-tetrahydroisoquinolin-7-yl}-1λ^6,2,5-thiadiazolidine-1,1,3-trione] | 1 to 10 µM | 0.001 to 0.01 µM | 0.01 to 0.1 µM |
| O=C1CN(c2c(O)cc3c(c2F)CC(NCC(O)C2CC2)CC3)S(=O)(=O)N1 (stereo not drawn) [Compound 188, 5-{7-[(2-cyclopropyl-2-hydroxyethyl)amino]-1-fluoro-3-hydroxy-5,6,7,8-tetrahydronaphthalen-2-yl}-1λ^6,2,5-thiadiazolidine-1,1,3-trione] | < 1 µM | 0.01 to 0.1 µM | 0.01 to 0.1 µM |
| O=C1CN(c2c(O)cc3c(c2F)CC(NCCc2ccccn2)CC3)S(=O)(=O)N1 (stereo not drawn) [Compound 135, 5-(1-fluoro-3-hydroxy-7-{[2-(pyridin-2-yl)ethyl]amino}-5,6,7,8-tetrahydronaphthalen-2-yl)-1λ^6,2,5-thiadiazolidine-1,1,3-trione] | 1 to 10 µM | 0.01 to 0.1 µM | 0.01 to 0.1 µM |
| CCCC1(N)CCc2cc(O)c(N3CC(=O)NS3(=O)=O)c(F)c2C1 (stereo not drawn) [Compound 255, 5-(7-amino-1-fluoro-3-hydroxy-7-propyl-5,6,7,8-tetrahydronaphthalen-2-yl)-1λ^6,2,5-thiadiazolidine-1,1,3-trione] | 1 to 10 µM | 0.01 to 0.1 µM | > 0.1 µM |
| O=C1CN(c2c(O)cc3c(c2F)C[C@@H]([C@H]2CCN(S(=O)(=O)C4CC4)C2)CC3)S(=O)(=O)N1 (single isomer, unassigned) [Compound 139, 5-{(7RS)-7-[(3SR)-1-(cyclopropanesulfonyl)pyrrolidin-3-yl]-1-fluoro-3-hydroxy-5,6,7,8-tetrahydronaphthalen-2-yl}-1λ^6,2,5-thiadiazolidine-1,1,3-trione] | 10 to 100 µM | 0.01 to 0.1 µM | 0.001 to 0.01 µM |
| O=C1CN(c2c(O)cc3c(c2F)CC(NCCC(F)(F)F)CC3)S(=O)(=O)N1 (stereo not drawn) [Compound 116, 5-{1-fluoro-3-hydroxy-7-[(3,3,3-trifluoropropyl)amino]-5,6,7,8-tetrahydronaphthalen-2-yl}-1λ^6,2,5-thiadiazolidine-1,1,3-trione] | 1 to 10 µM | 0.01 to 0.1 µM | 0.01 to 0.1 µM |
| CCCC1(NNC(=O)c2ccccc2)CCc2cc(O)c(N3CC(=O)NS3(=O)=O)c(F)c2C1 (stereo not drawn) [Compound 241, N′-[8-fluoro-6-hydroxy-2-propyl-7-(1,1,4-trioxo-1λ^6,2,5-thiadiazolidin-2-yl)-1,2,3,4-tetrahydronaphthalen-2-yl]benzohydrazide] | 10 to 100 µM | 0.01 to 0.1 µM | 0.01 to 0.1 µM |
| CC(C)(O)CCOC1CCc2cc(O)c(N3CC(=O)NS3(=O)=O)c(F)c2C1 (stereo not drawn) [Compound 197, 5-[1-fluoro-3-hydroxy-7-(3-hydroxy-3-methylbutoxy)-5,6,7,8-tetrahydronaphthalen-2-yl]-1λ^6,2,5-thiadiazolidine-1,1,3-trione] | 1 to 10 µM | 0.01 to 0.1 µM | 0.01 to 0.1 µM |

Now from value to compound, other results behind:

| IC50 [2] | IC50 [3] | Structure (SMILES) | IC50 [1] |
| --- | --- | --- | --- |
| 1 to 10 µM | 0.01 to 0.1 µM | O=C1CN(c2c(O)cc3c(c2F)C[C@@H](NCCC2CC2)CC3)S(=O)(=O)N1 (single isomer, unassigned) [Compound 134] | 0.01 to 0.1 µM |
| 1 to 10 µM | 0.001 to 0.01 µM | CC(C)CCN(C)C1CCc2cc(O)c(N3CC(=O)NS3(=O)=O)c(F)c2C1 (stereo not drawn) [Compound 128, 5-{1-fluoro-3-hydroxy-7-[methyl(3-methylbutyl)amino]-5,6,7,8-tetrahydronaphthalen-2-yl}-1λ^6,2,5-thiadiazolidine-1,1,3-trione] | 0.001 to 0.01 µM |
| 1 to 10 µM | 0.01 to 0.1 µM | COC(C)(C)CCNC1CCc2cc(O)c(N3CC(=O)NS3(=O)=O)c(F)c2C1 (stereo not drawn) [Compound 122, 5-{1-fluoro-3-hydroxy-7-[(3-methoxy-3-methylbutyl)amino]-5,6,7,8-tetrahydronaphthalen-2-yl}-1λ^6,2,5-thiadiazolidine-1,1,3-trione] | 0.001 to 0.01 µM |
| 1 to 10 µM | 0.01 to 0.1 µM | CC(C)CCNC[C@H]1Cc2cc(O)c(N3CC(=O)NS3(=O)=O)c(F)c2C1 (single isomer, unassigned) [Compound 292] | 0.01 to 0.1 µM |
| < 1 µM | 0.001 to 0.01 µM | CCC(C)CCN[C@@H]1CCc2cc(O)c(N3CC(=O)NS3(=O)=O)c(F)c2C1 (stereo partly drawn) [Compound 203, 5-{(7R)-1-fluoro-3-hydroxy-7-[(3-methylpentyl)amino]-5,6,7,8-tetrahydronaphthalen-2-yl}-1λ^6,2,5-thiadiazolidine-1,1,3-trione] | < 0.001 µM |
| 1 to 10 µM | 0.01 to 0.1 µM | CC(C)CCNCC1Cc2cc(O)c(N3CC(=O)NS3(=O)=O)c(F)c2C1 (stereo not drawn) [Compound 268, 5-(4-fluoro-6-hydroxy-2-{[(3-methylbutyl)amino]methyl}-2,3-dihydro-1H-inden-5-yl)-1λ^6,2,5-thiadiazolidine-1,1,3-trione] | 0.01 to 0.1 µM |
| < 1 µM | 0.001 to 0.01 µM | CC(C)(C)CCNC1CCc2cc(O)c(N3CC(=O)NS3(=O)=O)c(F)c2C1 (stereo not drawn) [Compound 174, 5-{7-[(3,3-dimethylbutyl)amino]-1-fluoro-3-hydroxy-5,6,7,8-tetrahydronaphthalen-2-yl}-1λ^6,2,5-thiadiazolidine-1,1,3-trione] | 0.001 to 0.01 µM |
